From ChEMBL document CHEMBL4145553, “Design, synthesis, and biological evaluation of novel amide and hydrazide based thioether analogs targeting Histone deacteylase (HDAC) enzymes” (Eur J Med Chem, 2018)
The source made the active and inactive calls. The rule behind the calls is not given here.

What was measured:
RXF 393 = assay: Growth inhibition of human RXF393 cells assessed as cell growth at 10^-4 M incubated for 48 hrs by sulforhodamine B assay relative to control; format: functional; conditions: RXF 393, 48 h, read-out: Activity
HL-60 = assay: Downregulation of HDAC1 mRNA expression in human HL60 cells by qRT-PCR method; format: functional, cell-based
NCI-H226 = assay: Growth inhibition of human NCI-H226 cells assessed as cell growth at 10^-6 M incubated for 48 hrs by sulforhodamine B assay relative to control; format: functional; conditions: NCI-H226, 48 h, read-out: Activity
LOX IMVI = assay: Growth inhibition of human LOXIMVI cells assessed as cell growth at 10^-7 M incubated for 48 hrs by sulforhodamine B assay relative to control; format: functional; conditions: read-out: Activity
786-0 = assay: Growth inhibition of human 786-0 cells assessed as cell growth at 10^-4 M incubated for 48 hrs by sulforhodamine B assay relative to control; format: functional; conditions: 786-0, 48 h, read-out: Activity
Hs-578T = assay: Growth inhibition of human Hs 578T cells incubated for 48 hrs by sulforhodamine B assay; format: functional
SF-268 = assay: Growth inhibition of human SF268 cells assessed as cell growth at 10^-6 M incubated for 48 hrs by sulforhodamine B assay relative to control; format: functional; conditions: SF-268, 48 h, read-out: Activity
NCI-H23 = assay: Growth inhibition of human NCI-H23 cells assessed as cell growth at 10^-5 M incubated for 48 hrs by sulforhodamine B assay relative to control; format: functional; conditions: NCI-H23, 48 h, read-out: Activity
SN12C [1] = assay: Growth inhibition of human SN12C cells assessed as cell growth at 10^-5 M incubated for 48 hrs by sulforhodamine B assay relative to control; format: functional; conditions: read-out: Activity
SNB-19 = assay: Growth inhibition of human SNB19 cells assessed as cell growth at 10^-7 M incubated for 48 hrs by sulforhodamine B assay relative to control; format: functional; conditions: SNB-19, 48 h, read-out: Activity
T47D = assay: Growth inhibition of human T47D cells assessed as cell growth at 10^-7 M incubated for 48 hrs by sulforhodamine B assay relative to control; format: functional; conditions: read-out: Activity
SF-295 [2] = assay: Growth inhibition of human SF295 cells assessed as cell growth at 10^-7 M incubated for 48 hrs by sulforhodamine B assay relative to control; format: functional; conditions: SF-295, 48 h, read-out: Activity
HOP-62 = assay: Growth inhibition of human HOP62 cells assessed as cell growth at 10^-8 M incubated for 48 hrs by sulforhodamine B assay relative to control; format: functional; conditions: HOP-62, 48 h, read-out: Activity
TK-10 [3] = assay: Growth inhibition of human TK10 cells assessed as cell growth at 10^-4 M incubated for 48 hrs by sulforhodamine B assay relative to control; format: functional; conditions: TK-10, 48 h, read-out: Activity
NCI/ADR-RES = assay: Growth inhibition of human NCI/ADR-RES cells incubated for 48 hrs by sulforhodamine B assay; format: functional
HCC 2998 [4] = assay: Growth inhibition of human HCC2998 cells assessed as cell growth at 10^-7 M incubated for 48 hrs by sulforhodamine B assay relative to control; format: functional; conditions: HCC 2998, 48 h, read-out: Activity
SF-295 [5] = assay: Growth inhibition of human SF295 cells assessed as cell growth at 10^-4 M incubated for 48 hrs by sulforhodamine B assay relative to control; format: functional; conditions: SF-295, 48 h, read-out: Activity
A549 = assay: Growth inhibition of human A549/ATCC cells assessed as cell growth at 10^-8 M incubated for 48 hrs by sulforhodamine B assay relative to control; format: functional; conditions: A549, 48 h, read-out: Activity
TK-10 [6] = assay: Growth inhibition of human TK10 cells assessed as cell growth at 10^-7 M incubated for 48 hrs by sulforhodamine B assay relative to control; format: functional; conditions: TK-10, 48 h, read-out: Activity
NCI-H522 = assay: Growth inhibition of human NCI-H522 cells assessed as cell growth at 10^-5 M incubated for 48 hrs by sulforhodamine B assay relative to control; format: functional; conditions: NCI-H522, 48 h, read-out: Activity
RPMI-8226 = assay: Growth inhibition of human RPMI8226 cells assessed as cell growth at 10^-8 M incubated for 48 hrs by sulforhodamine B assay relative to control; format: functional; conditions: RPMI-8226, 48 h, read-out: Activity
HCT-116 = assay: Growth inhibition of human HCT116 cells assessed as cell growth at 10^-6 M incubated for 48 hrs by sulforhodamine B assay relative to control; format: functional; conditions: HCT-116, 48 h, read-out: Activity
K562 = assay: Growth inhibition of human K562 cells assessed as cell growth at 10^-6 M incubated for 48 hrs by sulforhodamine B assay relative to control; format: functional; conditions: K562, 48 h, read-out: Activity
EKVX = assay: Growth inhibition of human EKVX cells incubated for 48 hrs by sulforhodamine B assay; format: functional
UACC-62 [7] = assay: Growth inhibition of human UACC62 cells incubated for 48 hrs by sulforhodamine B assay; format: functional; conditions: UACC-62, 48 h
SN12C [8] = assay: Growth inhibition of human SN12C cells assessed as cell growth at 10^-4 M incubated for 48 hrs by sulforhodamine B assay relative to control; format: functional; conditions: read-out: Activity
DU-145 = assay: Growth inhibition of human DU145 cells assessed as cell growth at 10^-4 M incubated for 48 hrs by sulforhodamine B assay relative to control; format: functional; conditions: DU-145, 48 h, read-out: Activity
UACC-62 [9] = assay: Growth inhibition of human UACC62 cells assessed as cell growth at 10^-5 M incubated for 48 hrs by sulforhodamine B assay relative to control; format: functional; conditions: UACC-62, 48 h, read-out: Activity
OVCAR-8 = assay: Growth inhibition of human OVCAR8 cells assessed as cell growth at 10^-5 M incubated for 48 hrs by sulforhodamine B assay relative to control; format: functional; conditions: OVCAR-8, 48 h, read-out: Activity
HCC 2998 [10] = assay: Growth inhibition of human HCC2998 cells assessed as cell growth at 10^-6 M incubated for 48 hrs by sulforhodamine B assay relative to control; format: functional; conditions: HCC 2998, 48 h, read-out: Activity
M14 = assay: Growth inhibition of human M14 cells assessed as cell growth at 10^-8 M incubated for 48 hrs by sulforhodamine B assay relative to control; format: functional; conditions: M14, 48 h, read-out: Activity
[11] = read-out: LC50 (the source's name)
[12] = read-out: pLC50 (the source's name) (converted)

## CCS/C(Nc1ccccc1)=C(\C#N)C(=O)Nc1ccc(OC)cc1
RXF 393
  growth at 100 µM: -20%
HL-60
  Activity: Active
NCI-H226
  growth at 1 µM: 88%
LOX IMVI
  growth at 0.1 µM: 96%
786-0
  growth at 100 µM: 6%
Hs-578T; read-out: GI50
  GI50: 4.07 µM
Hs-578T; [11]
  CC50: > 100 µM
Hs-578T; read-out: TGI
  TGI: > 100 µM
Hs-578T; read-out: pGI50 (converted)
  GI50: 4.07 µM
Hs-578T; [12]
  CC50: > 100 µM
Hs-578T; read-out: pTGI (converted)
  TGI: > 100 µM
SF-268
  growth at 1 µM: 90%
NCI-H23
  growth at 10 µM: 34%
SN12C [1]
  growth at 10 µM: 37%
SNB-19
  growth at 0.1 µM: 95%
T47D
  growth at 0.1 µM: 89%
SF-295 [2]
  growth at 0.1 µM: 90%
HOP-62
  growth at 0.01 µM: 92%
TK-10 [3]
  growth at 100 µM: 24%
NCI/ADR-RES; read-out: GI50
  GI50: 2.62 µM
NCI/ADR-RES; [11]
  CC50: > 100 µM
NCI/ADR-RES; read-out: TGI
  TGI: > 100 µM
NCI/ADR-RES; read-out: pGI50 (converted)
  GI50: 2.63 µM
NCI/ADR-RES; [12]
  CC50: > 100 µM
NCI/ADR-RES; read-out: pTGI
  TGI: > 100 µM
HCC 2998 [4]
  growth at 0.1 µM: 92%
SF-295 [5]
  growth at 100 µM: 6%
A549
  growth at 0.01 µM: 95%
TK-10 [6]
  growth at 0.1 µM: 95%
NCI-H522
  growth at 10 µM: -1%
RPMI-8226
  growth at 0.01 µM: 94%
HCT-116
  growth at 1 µM: 69%
K562
  growth at 1 µM: 29%
EKVX; read-out: GI50
  GI50: 4.42 µM
EKVX; [11]
  CC50: > 100 µM
EKVX; read-out: TGI
  TGI: > 100 µM
EKVX; read-out: pGI50 (converted)
  GI50: 4.47 µM
EKVX; [12]
  CC50: > 100 µM
EKVX; read-out: pTGI
  TGI: > 100 µM
UACC-62 [7]; read-out: GI50
  GI50: 2.58 µM
UACC-62 [7]; [11]
  CC50: > 100 µM
UACC-62 [7]; read-out: TGI
  TGI: > 100 µM
UACC-62 [7]; read-out: pGI50 (converted)
  GI50: 2.57 µM
UACC-62 [7]; [12]
  CC50: > 100 µM
UACC-62 [7]; read-out: pTGI
  TGI: > 100 µM
SN12C [8]
  growth at 100 µM: 16%
DU-145
  growth at 100 µM: -6%
UACC-62 [9]
  growth at 10 µM: 21%
OVCAR-8
  growth at 10 µM: 23%
HCC 2998 [10]
  growth at 1 µM: 91%
M14
  growth at 0.01 µM: 102%

## CCS/C(Nc1ccccc1)=C(\C#N)C(=O)N/N=C\c1ccc(Cl)cc1Cl
RXF 393
  growth at 100 µM: -22%
HL-60
  Activity: Active
NCI-H226
  growth at 1 µM: 85%
LOX IMVI
  growth at 0.1 µM: 96%
786-0
  growth at 100 µM: 7%
Hs-578T; read-out: GI50
  GI50: 2.74 µM
Hs-578T; [11]
  CC50: > 100 µM
Hs-578T; read-out: TGI
  TGI: 98.7 µM
Hs-578T; read-out: pGI50 (converted)
  GI50: 2.75 µM
Hs-578T; [12]
  CC50: > 100 µM
Hs-578T; read-out: pTGI (converted)
  TGI: 97.7 µM
SF-268
  growth at 1 µM: 87%
NCI-H23
  growth at 10 µM: 41%
SN12C [1]
  growth at 10 µM: 41%
SNB-19
  growth at 0.1 µM: 94%
T47D
  growth at 0.1 µM: 95%
SF-295 [2]
  growth at 0.1 µM: 88%
HOP-62
  growth at 0.01 µM: 93%
TK-10 [3]
  growth at 100 µM: 42%
NCI/ADR-RES; read-out: GI50
  GI50: 3.16 µM
NCI/ADR-RES; [11]
  CC50: > 100 µM
NCI/ADR-RES; read-out: TGI
  TGI: > 100 µM
NCI/ADR-RES; read-out: pGI50 (converted)
  GI50: 3.16 µM
NCI/ADR-RES; [12]
  CC50: > 100 µM
NCI/ADR-RES; read-out: pTGI
  TGI: > 100 µM
HCC 2998 [4]
  growth at 0.1 µM: 100%
SF-295 [5]
  growth at 100 µM: 3%
A549
  growth at 0.01 µM: 97%
TK-10 [6]
  growth at 0.1 µM: 91%
NCI-H522
  growth at 10 µM: -2%
RPMI-8226
  growth at 0.01 µM: 101%
HCT-116
  growth at 1 µM: 89%
K562
  growth at 1 µM: 47%
EKVX; read-out: GI50
  GI50: 5.09 µM
EKVX; [11]
  CC50: > 100 µM
EKVX; read-out: TGI
  TGI: > 100 µM
EKVX; read-out: pGI50 (converted)
  GI50: 5.13 µM
EKVX; [12]
  CC50: > 100 µM
EKVX; read-out: pTGI
  TGI: > 100 µM
UACC-62 [7]; read-out: GI50
  GI50: 2.74 µM
UACC-62 [7]; [11]
  CC50: > 100 µM
UACC-62 [7]; read-out: TGI
  TGI: > 100 µM
UACC-62 [7]; read-out: pGI50 (converted)
  GI50: 2.75 µM
UACC-62 [7]; [12]
  CC50: > 100 µM
UACC-62 [7]; read-out: pTGI
  TGI: > 100 µM
SN12C [8]
  growth at 100 µM: 28%
DU-145
  growth at 100 µM: 8%
UACC-62 [9]
  growth at 10 µM: 26%
OVCAR-8
  growth at 10 µM: 27%
HCC 2998 [10]
  growth at 1 µM: 99%
M14
  growth at 0.01 µM: 101%
